Patent US10450549B2, “Aryloxyphenoxypropionate tolerance in turfrgass species and use of AAD1 as a selectable marker” (Dow AgroSciences, LLC, priority 2004, dated 2019)

Assays:
AAD1 (v1) = target: T1, AAD1 (v1) (Sphingobium herbicidovorans, UniProt Q8KSC8); test: Colorimetric phenol detection assay of AAD1 (v1) activity (purified enzyme or E. coli extract); type: biochemical; conditions: for activity of AAD1 (v1) E. coli extract on substrate: 0.5 mM substrate, 4 μl extract; for A510, AAD1 / A510, AAD1 (10x): substrate 1 mM; for A510, AAD1: 1 μg purified AAD1 (v1) per 0.16 ml assay; for A510, AAD1 (10x): 10 μg purified AAD1 (v1) per 0.16 ml assay
T1 construct: made in house; host or cells: E. coli BL-21 Star (DE3), plasmid pDAB3203

[1] = test system: PAT/Cry1F-transformed Arabidopsis; test: T1 Arabidopsis spray test, % visual injury 2 WAT: PAT/Cry1F transformed control; type: in vivo, Arabidopsis thaliana; conditions: for % Injury 20-40% / % Injury <20% / % Injury >40%: number of individuals
Excerpt: Random individual T1 plants selected for glufosinate resistance above were confirmed for expression of the PAT protein using a PAT ELISA kit (Part no. 7000045, Strategic Diagnostics, Inc., Newark, Del.) to non-destructively confirm fidelity of selection process (manufacturer's protocol). Plants were then randomly assigned to various rates of phenoxy herbicides (dichlorprop or 2,4-D). […] Elevated rates were applied in subsequent trials (50, 200, 800, or 3200 g ae/ha).
All auxin herbicide applications were made using the DeVilbiss sprayer as described above to apply 703 L/ha spray volume (0.4 ml solution/3-inch pot) or applied by track sprayer in a 187 L/ha spray volume. […] Dichlorprop used was technical grade (Sigma, St. Louis, Mo.) dissolved in DMSO and diluted in water (<1% DMSO final concentration). As herbicide rates increased beyond 800 g ae/ha, the pH of the spray solution became exceedingly acidic, burning the leaves of young, tender Arabidopsis plants and complicating evaluation of the primary effects of the herbicides. It became standard practice to apply these high rates of phenoxy herbicides in 200 mM Tris buffer (pH 9.0) to a final pH of ˜7-8.
Although Arabidopsis, being a dicot, is not an optimal system for testing ACCase-inhibiting AOPP grass herbicides, AAD1 (v3)-transformed T1 plants were subjected to elevated rates (400-1600 g ae/ha) of RS-haloxyfop acid (internally synthesized) that do cause growth abnormalities and death of wildtype Arabidopsis using the DeVilbiss sprayer as described above. Injury ratings were taken 7 and 14 days after treatment. Likewise, T1 individuals were treated with the pyridyloxyacetate auxin herbicide, fluroxypyr.
Table 16. […] Response is presented in terms of % visual injury 2 WAT. […] Since each T1 is an independent transformation event, one can expect significant variation of individual T1 responses within a given rate. An arithmetic mean and standard deviation is presented for each treatment. The range in individual response is also indicated in the last column for each rate and transformation. PAT/Cry1F-transformed Arabidopsis served as an auxin-sensitive transformed control. Wildtype Arabidopsis is untransformed.
(§1) Table 17. T1 Arabidopsis response to a range of dichlroprop rates applied postemergence. Response is presented in terms of % visual injury 2 WAT. […] Since each T1 is an independent transformation event, one can expect significant variation of individual T1 responses within a given rate. An arithmetic mean and standard deviation is presented for each treatment. The range in individual response is also indicated in the last column for each rate and transformation. PAT/Cry1F-transformed Arabidopsis served as an auxin-sensitive transformed control. Wildtype Arabidopsis is untransformed.
as §1, with “18.” for “17.”, “haloxyfop” for “dichlroprop”, “postemergence at artificially high rates attempting to show tolerance of the dicot Arabidopsis to the graminicide.” for “postemergence.”

wt ARBTH = test: In vitro plate test of herbicide cross resistance: wild-type Arabidopsis; type: in vivo, Arabidopsis thaliana; conditions: 7 days
Method: (§2) The ability of AAD1 (v3) to provide resistance to other aryloxyphenoxyalkanoate herbicides in transgenic Arabidopsis was determined using a modified in vitro plate assay. Seeds from wild-type Arabidopsis thaliana as well as Arabidopsis thaliana containing the plant optimized AAD1 (v3) gene (T4 homozygous plants id=PAAD1.315.064) were sterilized by agitating for 10 min in a 50% bleach solution. These seeds were then rinsed four times with sterile water to remove the bleach.
(§3) Dose response assays utilized a nutrient media (see below) supplemented with various rates of test compounds. The test compounds were added to the heated media (55° C.) as concentrated solutions in DMSO. Control wells had the appropriate amount of DMSO without any additional compound. The final concentration of DMSO never exceeded 1% (v/v). After thorough mixing, a 6 mL aliquot of the warm media containing the appropriate concentration of compound was added to each well of a 6-well, flat bottom, polystyrene tissue culture tray (Falcon 353046, Becton Dickson and Company, Franklin Lakes, N.J.). After the media solidified, approximately 20 to 30 Arabidopsis seeds were applied on top of the solidified media and the remaining 2 mL of media was poured over the seeds. The plates were lightly agitated to disperse the seeds, covered and allowed to cool until the media had completely solidified. The plates were incubated for 7 days at 25° C. under continual fluorescent lighting (75 μE m^−2 s^−1). Nutrient Media Composition was as described in Example 2.2 and in Somerville and Orgen (1982).
(§4) Assessment of Growth Reduction. The apical portion of the Arabidopsis plants grown in the treated media was assessed visually relative to the apical portion of the plants grown in the media containing only DMSO. Values were recorded as % growth reduction. Assessments of root growth inhibition of the Arabidopsis plants grown in the treated media were achieved by carefully extracting the plants from the media and measuring the length of the root. These root lengths were then compared to the root length of the control plants to determine a % growth reduction. A minimum of five plants were assessed for each treatment. The values recorded are an average of all the plants assessed. The calculated concentration to reach 50% inhibition effect (I50) were determined for both root and shoots of wildtype and AAD1-transformed Arabidopsis. The ratios of resistant to sensitive biotypes are included in Table 19. A ratio>2 for both root and shoot measurements generally signifies significant resistance. The higher the ratio, the greater the level of resistance. […] The broad phenoxy auxin resistance is the first reported in planta.

PAAD1.315.064 ARBTH = test: In vitro plate test of herbicide cross resistance: homozygous T4 AAD1 (v3) Arabidopsis; type: in vivo, Arabidopsis thaliana; conditions: for root ratio / shoot ratio: resistant to sensitive biotype, >2 signifies resistance; for PAAD1.315.064 ARBTH root 150 / PAAD1.315.064 T3 ARBTH shoot 150: 7 days
Method: as §2, §3, §4

[2] = PAT/Cry1F (transformed control), 50 g ae/ha
[3] = PAT/Cry1F (transformed control), 200 g ae/ha
[4] = PAT/Cry1F (transformed control), 800 g ae/ha

T1 sequence (Q8KSC8 whole entry): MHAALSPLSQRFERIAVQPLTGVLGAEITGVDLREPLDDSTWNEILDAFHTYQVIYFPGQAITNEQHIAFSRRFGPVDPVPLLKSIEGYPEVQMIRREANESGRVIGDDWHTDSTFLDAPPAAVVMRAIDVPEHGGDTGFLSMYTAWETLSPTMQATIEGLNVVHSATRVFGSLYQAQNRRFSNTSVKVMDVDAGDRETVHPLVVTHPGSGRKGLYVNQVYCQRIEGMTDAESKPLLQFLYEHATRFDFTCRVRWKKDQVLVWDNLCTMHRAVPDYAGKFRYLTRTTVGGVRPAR

CC(Oc1ccc(Cl)cc1Cl)C(=O)O (racemic) [(R,S)-dichlorprop, 2,4-dichlorophenoxypropionic acid]
activity of AAD1 (v1) E. coli extract on substrate (AAD1 (v1); 15 min): cleaved | A510, AAD1 (AAD1 (v1); Table 3, 15 min): 0.566 | A510, AAD1 (10x) (AAD1 (v1); Table 3, 15 min): 2.594 | % Injury Ave ([1]; PAT/Cry1F, 12.5 g ae/ha): 38.1% | % Injury Range ([1]; PAT/Cry1F, 12.5 g ae/ha): 20-95% | individuals with 20-40% injury ([1]; PAT/Cry1F, 12.5 g ae/ha): 6 | individuals with <20% injury ([1]; PAT/Cry1F, 12.5 g ae/ha): 0 | individuals with >40% injury ([1]; PAT/Cry1F, 12.5 g ae/ha): 2 | % Injury Ave ([1]; PAT/Cry1F, 50 g ae/ha): 80.0% | % Injury Range ([1]; PAT/Cry1F, 50 g ae/ha): 50-100% | individuals with 20-40% injury ([1]; PAT/Cry1F, 50 g ae/ha): 0 | individuals with <20% injury ([1]; PAT/Cry1F, 50 g ae/ha): 0 | individuals with >40% injury ([1]; PAT/Cry1F, 50 g ae/ha): 8 | % Injury Ave ([1]; PAT/Cry1F, 200 g ae/ha): 98.3% | % Injury Range ([1]; PAT/Cry1F, 200 g ae/ha): 95-100% | individuals with 20-40% injury ([1]; PAT/Cry1F, 200 g ae/ha): 0 | individuals with <20% injury ([1]; PAT/Cry1F, 200 g ae/ha): 0 | individuals with >40% injury ([1]; PAT/Cry1F, 200 g ae/ha): 8 | % Injury Ave ([1]; PAT/Cry1F, 800 g ae/ha): 100.0% | % Injury Range ([1]; PAT/Cry1F, 800 g ae/ha): 100% | individuals with 20-40% injury ([1]; PAT/Cry1F, 800 g ae/ha): 0 | individuals with <20% injury ([1]; PAT/Cry1F, 800 g ae/ha): 0 | individuals with >40% injury ([1]; PAT/Cry1F, 800 g ae/ha): 8 | wt ARBTH root 150 (wt ARBTH): 0.01 ppm | wt ARBTH shoot 150 (wt ARBTH): 2 ppm | root ratio (PAAD1.315.064 ARBTH): 150 | shoot ratio (PAAD1.315.064 ARBTH): 2.5 | PAAD1.315.064 ARBTH root 150 (PAAD1.315.064 ARBTH): 1.5 ppm | PAAD1.315.064 T3 ARBTH shoot 150 (PAAD1.315.064 ARBTH): 5 ppm

O=C(O)COc1ccc(Cl)cc1Cl [2,4-D, 2,4-dichlorophenoxyacetic acid]
activity of AAD1 (v1) E. coli extract on substrate (AAD1 (v1); 15 min): cleaved | Vmax (A510 units) (AAD1 (v1); AAD1 (v1) (pDAB3203), MOPS pH 6.75): 0.11 A510 units | A510, AAD1 (AAD1 (v1); Table 3, 15 min): 0.034 | A510, AAD1 (10x) (AAD1 (v1); Table 3, 15 min): 0.383 | A510 (AAD1 (v1); Table 8, 1 mM, 27 μg crude recombinant AAD1 (v1) extract from E. coli): 0.177 | % 2,4-D (AAD1 (v1); Table 8, relative to 2,4-D, crude AAD1 (v1) extract): 100% | apparent Vmax, AAD1 (v1) (AAD1 (v1); partially purified enzyme): 0.11 A510 units | kcat (AAD1 (v1); purified AAD1 (v1)): 0.045 s⁻¹ | Vmax ± SE (AAD1 (v1); purified AAD1 (v1), Michaelis-Menten fit): 0.57 ± 0.00 μmol min^−1 mg^−1 AAD1 | % Injury Ave [1, 2]: 90.7% | individuals with 20-40% injury [1, 2]: 0 | individuals with <20% injury [1, 2]: 0 | individuals with >40% injury [1, 2]: 15 | % Injury Ave [1, 3]: 97.2% | individuals with 20-40% injury [1, 3]: 0 | individuals with <20% injury [1, 3]: 0 | individuals with >40% injury [1, 3]: 15 | % Injury Ave [1, 4]: 100.0% | individuals with 20-40% injury [1, 4]: 0 | individuals with <20% injury [1, 4]: 0 | individuals with >40% injury [1, 4]: 15 | wt ARBTH root 150 (wt ARBTH): <0.01 ppm | wt ARBTH shoot 150 (wt ARBTH): 0.2 ppm | PAAD1.315.064 ARBTH root 150 (PAAD1.315.064 ARBTH): 0.04 ppm | PAAD1.315.064 T3 ARBTH shoot 150 (PAAD1.315.064 ARBTH): 10 ppm

Nc1c(Cl)c(F)nc(OCC(=O)O)c1Cl [Fluroxypyr]
wt ARBTH root 150 (wt ARBTH): 0.2 ppm | wt ARBTH shoot 150 (wt ARBTH): 2 ppm | root ratio (PAAD1.315.064 ARBTH): 1 | shoot ratio (PAAD1.315.064 ARBTH): 0.5 | resistance afforded by AAD1 (v3) in plate test (PAAD1.315.064 ARBTH; root and shoot assessment): did not effectively protect | PAAD1.315.064 ARBTH root 150 (PAAD1.315.064 ARBTH): 0.2 ppm | PAAD1.315.064 T3 ARBTH shoot 150 (PAAD1.315.064 ARBTH): 1 ppm

CC(Oc1ccc(Oc2ncc(C(F)(F)F)cc2Cl)cc1)C(=O)O (centres unmarked) [haloxyfop]
A510, AAD1 (AAD1 (v1); Table 4): 0.172 | A510, AAD1 (10x) (AAD1 (v1); Table 4): 1.63 | % Injury Ave ([1]; 100 g ae/ha, PAT/Cry1F): 0.0% | % Injury Range ([1]; 100 g ae/ha, PAT/Cry1F): 0% | % Injury Ave ([1]; 200 g ae/ha, PAT/Cry1F): 10.0% | % Injury Range ([1]; 200 g ae/ha, PAT/Cry1F): 10% | % Injury Ave ([1]; 400 g ae/ha, PAT/Cry1F): 27.5% | % Injury Range ([1]; 400 g ae/ha, PAT/Cry1F): 20-30% | % Injury Ave ([1]; 800 g ae/ha, PAT/Cry1F): 78.8% | % Injury Range ([1]; 800 g ae/ha, PAT/Cry1F): 70-85% | % Injury Ave ([1]; 1600 g ae/ha, PAT/Cry1F): 47.5% | % Injury Range ([1]; 1600 g ae/ha, PAT/Cry1F): 80-100% | % Injury 20-40% ([1]; 100 g ae/ha, PAT/Cry1F): 0 | % Injury <20% ([1]; 100 g ae/ha, PAT/Cry1F): 4 | % Injury >40% ([1]; 100 g ae/ha, PAT/Cry1F): 0 | % Injury 20-40% ([1]; 200 g ae/ha, PAT/Cry1F): 0 | % Injury <20% ([1]; 200 g ae/ha, PAT/Cry1F): 4 | % Injury >40% ([1]; 200 g ae/ha, PAT/Cry1F): 0 | % Injury 20-40% ([1]; 400 g ae/ha, PAT/Cry1F): 4 | % Injury <20% ([1]; 400 g ae/ha, PAT/Cry1F): 0 | % Injury >40% ([1]; 400 g ae/ha, PAT/Cry1F): 0 | % Injury 20-40% ([1]; 800 g ae/ha, PAT/Cry1F): 0 | % Injury <20% ([1]; 800 g ae/ha, PAT/Cry1F): 0 | % Injury >40% ([1]; 800 g ae/ha, PAT/Cry1F): 4 | % Injury 20-40% ([1]; 1600 g ae/ha, PAT/Cry1F): 0 | % Injury <20% ([1]; 1600 g ae/ha, PAT/Cry1F): 0 | % Injury >40% ([1]; 1600 g ae/ha, PAT/Cry1F): 4

C[C@@H](Oc1ccc(Oc2cnc3cc(Cl)ccc3n2)cc1)C(=O)O [quizalofop]
activity relative to the dichlorprop rate (AAD1 (v1); purified AAD1 (v1), 1 mM substrate): 76%
